# Data taken from ChEMBL document CHEMBL5370629, “Probing the Interactions of Thiazole Abietane Inhibitors with the Human Serine Hydrolases ABHD16A and ABHD12” (ACS Med Chem Lett, 2023).
# Columns and labels:
# [1] = molecular target: T1, Phosphatidylserine lipase ABHD16A (Mus musculus) (UniProt Q9Z1Q2); experiment: Inhibition of azido-fluorophosphonate probe binding to mouse ABHD16A expressed in HEK293T cells at 200 uM incubated for 1 hr followed by azido-fluorophosphonate addition and measured after 1 hr by fluorescent Western blotting analysis relative to control; type: cell-based; conditions: time 2.0 hrs
# T1 sequence (whole entry): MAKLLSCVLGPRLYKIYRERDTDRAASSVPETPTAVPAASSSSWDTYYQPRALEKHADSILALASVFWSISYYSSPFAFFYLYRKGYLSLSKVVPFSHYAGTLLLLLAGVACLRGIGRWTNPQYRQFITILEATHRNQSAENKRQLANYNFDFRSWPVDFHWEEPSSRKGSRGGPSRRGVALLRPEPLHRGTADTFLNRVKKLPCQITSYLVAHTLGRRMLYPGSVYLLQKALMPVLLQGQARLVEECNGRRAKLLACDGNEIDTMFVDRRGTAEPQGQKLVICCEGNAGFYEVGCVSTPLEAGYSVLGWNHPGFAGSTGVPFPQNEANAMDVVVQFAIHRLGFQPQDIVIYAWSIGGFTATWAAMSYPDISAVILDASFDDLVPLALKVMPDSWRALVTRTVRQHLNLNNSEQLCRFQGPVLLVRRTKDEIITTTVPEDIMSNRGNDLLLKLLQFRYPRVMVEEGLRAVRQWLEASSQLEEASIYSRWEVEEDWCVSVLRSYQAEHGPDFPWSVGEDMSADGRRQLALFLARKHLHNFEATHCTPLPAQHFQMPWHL
# [2] = molecular target: T2, Phosphatidylserine lipase ABHD16A (Homo sapiens) (UniProt O95870); experiment: Inhibition of azido-fluorophosphonate probe binding to human ABHD16A expressed in HEK293T cells at 100 uM incubated for 1 hr followed by azido-fluorophosphonate addition and measured after 1 hr by fluorescent Western blotting analysis relative to control; type: cell-based; conditions: time 2.0 hrs
# T2 sequence (whole entry): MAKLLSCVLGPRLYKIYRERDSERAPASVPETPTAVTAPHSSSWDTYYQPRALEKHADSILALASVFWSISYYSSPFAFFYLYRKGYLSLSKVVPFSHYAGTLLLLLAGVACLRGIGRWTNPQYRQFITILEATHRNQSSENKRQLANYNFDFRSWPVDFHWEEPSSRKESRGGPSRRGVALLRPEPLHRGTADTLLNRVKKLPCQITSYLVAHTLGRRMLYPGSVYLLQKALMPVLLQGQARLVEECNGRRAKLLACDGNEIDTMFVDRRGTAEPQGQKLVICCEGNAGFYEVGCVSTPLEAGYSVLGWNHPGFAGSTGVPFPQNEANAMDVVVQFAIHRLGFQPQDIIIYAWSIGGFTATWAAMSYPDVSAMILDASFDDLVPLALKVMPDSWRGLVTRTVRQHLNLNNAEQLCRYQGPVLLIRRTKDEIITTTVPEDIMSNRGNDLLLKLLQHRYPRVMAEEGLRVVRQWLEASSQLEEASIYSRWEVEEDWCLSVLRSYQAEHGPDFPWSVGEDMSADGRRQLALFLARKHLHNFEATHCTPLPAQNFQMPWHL
# [3] = molecular target: T2, Phosphatidylserine lipase ABHD16A (Homo sapiens); experiment: Inhibition of azido-fluorophosphonate probe binding to human ABHD16A expressed in HEK293T cells at 20 uM incubated for 1 hr followed by azido-fluorophosphonate addition and measured after 1 hr by fluorescent Western blotting analysis relative to control; type: cell-based; conditions: time 2.0 hrs
# [4] = molecular target: T3, ABHD12 (lysophosphatidylserine lipase) (Homo sapiens, UniProt Q8N2K0); experiment: Inhibition of azido-fluorophosphonate probe binding to human ABHD12 expressed in HEK293T cells at 100 uM incubated for 1 hr followed by azido-fluorophosphonate addition and measured after 1 hr by fluorescent Western blotting analysis relative to control; type: toxicity, cell-based; conditions: HEK293T cells that express human ABHD12, probe azido-fluorophosphonate
# T3 sequence (Q8N2K0 whole entry): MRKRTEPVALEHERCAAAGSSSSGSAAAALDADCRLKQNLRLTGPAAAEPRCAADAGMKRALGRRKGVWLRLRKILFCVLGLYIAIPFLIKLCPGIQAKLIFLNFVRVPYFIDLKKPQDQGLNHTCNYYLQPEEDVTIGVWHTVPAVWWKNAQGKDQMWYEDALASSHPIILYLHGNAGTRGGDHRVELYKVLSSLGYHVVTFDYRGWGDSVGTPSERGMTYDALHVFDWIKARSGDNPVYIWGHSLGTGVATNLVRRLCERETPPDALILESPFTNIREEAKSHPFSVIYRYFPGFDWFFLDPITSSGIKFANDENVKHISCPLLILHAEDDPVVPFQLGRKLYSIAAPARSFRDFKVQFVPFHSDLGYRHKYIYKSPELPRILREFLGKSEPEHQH
# [5] = molecular target: T3, ABHD12 (lysophosphatidylserine lipase); experiment: Inhibition of azido-fluorophosphonate probe binding to human ABHD12 expressed in HEK293T cells at 20 uM incubated for 1 hr followed by azido-fluorophosphonate addition and measured after 1 hr by fluorescent Western blotting analysis relative to control; type: toxicity, cell-based; conditions: HEK293T cells that express human ABHD12, probe azido-fluorophosphonate
# [6] = molecular target: T1, Phosphatidylserine lipase ABHD16A (Mus musculus); experiment: Inhibition of azido-fluorophosphonate probe binding to mouse ABHD16A expressed in HEK293T cells at 20 uM incubated for 1 hr followed by azido-fluorophosphonate addition and measured after 1 hr by fluorescent Western blotting analysis relative to control; type: cell-based; conditions: time 2.0 hrs
# [7] = molecular target: T1, Phosphatidylserine lipase ABHD16A (Mus musculus); experiment: Inhibition of azido-fluorophosphonate probe binding to mouse ABHD16A expressed in HEK293T cells at 20 to 100 uM incubated for 1 hr followed by azido-fluorophosphonate addition and measured after 1 hr by fluorescent Western blotting analysis relative to control; type: cell-based; conditions: dose 20-100 µM, time 2.0 hrs
# [8] = molecular target: T4, Lysophosphatidylserine lipase ABHD12 (Homo sapiens, UniProt Q8N2K0); experiment: Inhibition of azido-fluorophosphonate probe binding to human ABHD12 expressed in HEK293T cells at 20 to 100 uM incubated for 1 hr followed by azido-fluorophosphonate addition and measured after 1 hr by fluorescent Western blotting analysis; type: toxicity, cell-based; conditions: 2 h, dose 20-100 µM
# T4 sequence (Q8N2K0 whole entry): T3 sequence (Q8N2K0 whole entry)
inhibition [1] [%],inhibition [2] [%],inhibition [3] [%],inhibition [6] [%],inhibition [7] [%],Structure (SMILES),"inhibition at 2 h, 100 µM [4] [%]","inhibition at 2 h, 20 µM [5] [%]",inhibition (INH) [8]
59.8,37.6,,,,CC(C)c1cc2c(cc1-c1csc([C@H](C)O)n1)[C@@]1(C)CCC[C@@](C)(C(N)=O)[C@@H]1CC2,,,
66.4,48,35.7,,,COC(=O)[C@]1(C)CCC[C@]2(C)c3cc(-c4csc([C@H](C)O)n4)c(C(C)C)cc3CC[C@@H]12,60.9,54,
,,,,34.1,CC(C)c1cc2c(cc1-c1csc([C@H](C)O)n1)[C@@]1(C)CCCC(C)(C)[C@@H]1CC2,,,Not Active

# The remaining lines, values behind:
Structure (SMILES),inhibition [1] [%],inhibition [2] [%],inhibition [3] [%],inhibition [6] [%],inhibition [7] [%],"inhibition at 2 h, 100 µM [4] [%]","inhibition at 2 h, 20 µM [5] [%]",inhibition (INH) [8]
COC(=O)[C@]1(C)CCC[C@]2(C)c3cc(-c4csc(COC(C)=O)n4)c(C(C)C)cc3CC[C@@H]12,62.9,48.4,,,,,,
COC(=O)[C@]1(C)CCC[C@]2(C)c3cc(-c4csc(C)n4)c(C(C)C)cc3C(=O)C[C@@H]12,73.2,55.1,32.2,,,,,
CC(=O)c1nc(-c2cc3c(cc2C(C)C)CC[C@H]2[C@](C)(C(N)=O)CCC[C@]32C)cs1,83.5,45.5,33.5,55.5,,,,
